This is an account of results in patent US12128019B1, “Nanocomposite including abscisic acid-loaded collagen nanoparticles” (KING FAISAL UNIVERSITY, priority 2023, dated 2024).

Marks after values point to notes of the source that are not given here.

In data set [1] the test system is NHSF cell line. The experiment in a line: In vitro cytotoxicity and cell viability, optical microscope. Type of data set: cell-based. How it is done: On the NHSF cell line, the cytotoxic effect of ABA alone and collagen nanoparticles loaded with ABA was investigated with serial double-fold dilutions at an initial dose of 50 μMABA. ABA loaded with collagen nanoparticles was dissolved in ethanol, 0.0264 g/mL stock solutions, which were then serially diluted in a complete growth medium to make the different concentrations used in cytotoxicity assays. The cytotoxicity of each drug against the NHSF cell line was determined using an optical microscope. After a 24-hour incubation period at 37° C., exponentially developing cells were seeded in 96-well flat-bottomed microplates and subjected to drug doses for […].
After exposure of the NHSF cell line to each experimental drug, the reactions were allowed to proceed in an incubator (37° C./5% CO2/95% humidity) for 24 hours and 72 hours of time. Cell viability was recorded through an optical microscope, which is one of the methods generally used to detect cell proliferation or toxicity.
After 24 hours, cell growth rates in different types of ABA and “Marine Collagen Nanoparticles (MCNPs) with ABA were observed under an optical microscope. Cells were also cultured in media containing ethanol in an incubator (37° C./5% CO2/95% humidity) and then observed under an optical microscope.

For data set [2], the system named is cardiac enzymes; troponin, LDH, and CK. The experiment in a line: Biological cardiac markers in serum, MI rats. The conditions noted are these: for Cardiac enzyme levels: serum troponin, LDH, CK. Type of data set: in vivo. How it is done: (§1) Four groups of rats were injected with adrenaline (2 mg/kg, s.c.) as a single dose for 2 consecutive days (24 h apart) to induce myocardial infarction (MI) while an additional rat group was used as control. Treatment of the rat groups is set forth below.
(§2) Group 1: (Control negative group): rats were injected intraperitoneally (i.p.) with physiological saline 0.2 ml/day for one week.
(§3) Group 2 (MI group): rats were injected with adrenaline (2 mg/kg, s.c.) as a single dose for 2 consecutive days (24 h apart) to induce MI.
(§4) Group 3 (MI+ABA carrying on collagen nanoparticle): rats were injected with adrenaline (2 mg/kg, s.c.) as a single dose for 2 consecutive days (24 h apart) to induce MI and ABA-loaded collagen nanoparticle were administered with adrenaline by oral gavage for one week 1 mg/kg/day of.
(§5) Group 4 (MI+Trimetazidine): rats were injected with adrenaline (2 mg/kg, s.c.) as a single dose for 2 consecutive days (24 h apart) to induce MI and Trimetazidine (Sigma, USA) was administered intraperitoneally with adrenaline at 10 mg/kg/day for one week. Trimetazidine was injected intraperitoneally in the low-dose group (10 mg/kg).
(§6) Group 5 (MI+Collagen nanoparticle) group: rats were injected with adrenaline (2 mg/kg, s.c.) as a single dose for 2 consecutive days (24 h apart) to induce MI Collagen nanoparticle was administered along with adrenaline by oral gavage for one week at 1 mg/kg/day.
(§7) Group 6 (MI+ABA carrying on collagen nanoparticle+Trimetazidine) group: rats were injected with adrenaline (2 mg/kg, s.c.) as a single dose for 2 consecutive days (24 h apart) to induce MI, and ABA-loaded collagen nanoparticle were administered (1 mg/kg/day) by oral gavage and 10 mg/kg/day with Trimetazidine administered intraperitoneally (i.p.) along with adrenaline for one week.

Data set [3] concerns adrenaline-induced myocardial infarction (MI). The experiment in a line: Electrocardiogram and haemodynamic assessment in adrenaline-induced MI rats. Type of data set: in vivo. Conditions: for ECG finding: MI rats, FIGS. 3A-3E; for COP (mean) / HR (mean) / RR (interval) / ST height / carotid flow mean: rats, adrenaline 2 mg/kg s.c. on 2 consecutive days, treatment for one week. How it is done: as §1, §2, §3, §4, §5, §6, §7

In data set [4] the test system is oxidative stress markers and antioxidant enzymes. The experiment in a line: Oxidative stress markers and antioxidant enzymes, cardiac contents, MI rats. Conditions: treatment for one week. It is filed as in vivo. How it is done: as §1, §2, §3, §4, §5, §6, §7
All treatment drugs improved the marker levels. NO level increased due to adrenaline administration because the role of NO in cardiovascular diseases is complex and controversial.

Data set [5] in a line: Body and heart weight of experimental rats. It is filed as in vivo. The conditions noted are these: MI rats, treatment for one week. How it is done: as §1, §2, §3, §4, §5
Group 5 (MI+Collagen nanoparticle) group: rats were injected with adrenaline (2 mg/kg, s.c.) as a single dose for 2 consecutive days (24 h apart) to induce MI Collagen nanoparticle was administered along with adrenaline by oral gavage for one week at 1 mg/kg/day. […]

For the compound `CC1=CC(=O)CC(C)(C)[C@@]1(O)/C=C/C(C)=C\C(=O)O` [ABA, abscisic acid], in data set [1] (HSFs culture, after 72 hours), the cell proliferation result is “marked increase of proliferation”. For the same compound, the cell morphology entry in data set [1] (NHSF cell line, after 24 hours) is “normal morphology of branch- and spindle-shapes”.
As to `CC1=CC(=O)CC(C)(C)C1(O)/C=C/C(C)=C\C(=O)O` (centres unmarked) [Extracted ABA, abscisic acid], the Cardiac enzyme levels entry in data set [2] is recorded as “decreased toward normal”. In data set [3], the ECG finding result is recorded as “still showed pathological changes but with the ST segment nearer to the isoelectric line”, the “COP (mean)” value was 18.57 ± 1.0^b ml/min, the “HR (mean)” value is listed as 247.4 ± 9.69^cd b/min and the “RR (interval)” value was 0.73 ± 0.03^b sec. In data set [3], the ST height is given as 42.98 ± 4.05^b mm and the carotid flow mean is reported as 18.06 ± 1.15^b ml/min. Further, in data set [3] (compared to the MI group), the “elevation of COP” value turned out to be 73%, the “elevation of SV” value is given as 93% and the “elevation of carotid blood flow” value is reported as 70%.
For the compound `CC1=CC(=O)CC(C)(C)[C@@]1(O)/C=C/C(C)=C\C(=O)O` [Standard ABA, abscisic acid], the Cardiac enzyme levels entry in data set [2] is reported as “decreased toward normal”. In data set [3], the ECG finding entry is given as “still showed pathological changes but with the ST segment nearer to the isoelectric line”, the “COP (mean)” value is reported as 17.52 ± 0.1^b ml/min, the “HR (mean)” value was 255.77 ± 1.23^c b/min and the “RR (interval)” value is recorded as 0.7 ± 0.003^c sec. Moreover, in data set [3], the ST height was 39.33 ± 2.15^b mm and the carotid flow mean is 17.4 ± 0.16^b ml/min. For the same compound, in data set [3] (compared to the MI group), the “elevation of COP” value is 63%, the “elevation of SV” value is listed as 73% and the “elevation of carotid blood flow” value was found to be 63%.
`COc1ccc(CN2CCNCC2)c(OC)c1OC` [Trimetazidine]: in data set [2] (serum, treatment for one week), the CK-MB is listed as 1.13 ± 0.02^bc U/L, the LDH was 246.67 ± 12.47^d U/L and the Troponin is recorded as 1.34 ± 0.03^d ng/ml. Further, in data set [3], the ECG finding result is given as “almost normal electrocardiogramith little to no elevation in the ST-segment”, the “COP (mean)” value is recorded as 23.9 ± 0.07^a ml/min, the “HR (mean)” value is 254.17 ± 1.89^c b/min and the “RR (interval)” value was 0.75 ± 0.02^a sec. Further, in data set [3], the ST height was 27.55 ± 0.49^c mm and the carotid flow mean was 23.75 ± 0.05^a ml/min. For the same compound, in data set [3] (compared to the MI group), the “decrease in the ST segment elevation” value is on record as about 46%. Besides, in data set [4] (cardiac contents), the Catalase is given as 132.5 ± 36.08^ab U/g protein, the GSH is recorded as 19.59 ± 2.28ª μmol/g protein and the MDA is on record as 4.4 ± 0.26^cde μmol/g protein. In addition, in data set [4], the NO is recorded as 52.22 ± 0^bc μM/g protein. Moreover, in data set [5] (body weight), the Bwt is listed as 188 ± 1.22^bcd. Besides, the Hwt in data set [5] (heart weight) is 1.39 ± 0.03^cd.
